Assay results as given in US4137236A, “Amino-spiro[oxa(or thia)cycloalkane-penam]-carboxylic” (U C B, Societe Anonyme, priority 1977, dated 1979).

What was measured:
Type in all cases: cell-based
[1] = test system: Staphylococcus aureus 6538; experiment: MIC in gelose culture medium (relative to reference penicillin); conditions: S.AUREUS 6538; reference 6-amino-penicillanic acid = 1
Method: This is a Gram-positive coccus which is particularly sensitive to penicillins and which has a low resistance mechanism. This strain of Staphylococcus is, therefore, representative of a maximum sensitivity of the species.
(§1) For a certain number of compounds of formula (XV), the minimum inhibitory concentration (MIC) was determined as follows:
(§2) The products to be tested are introduced in increasing concentrations into a gelose culture medium in Petri dishes. A multiple inoculator is used to deposit simultaneously drops (10 microliters) of inoculum (suspension of approximately 10^5 bacteria per ml) onto the surface of the medium. After incubation at 37° C for 24 hours, the growth of the bacteria is observed. By definition, the MIC is expressed by the minimum concentration of tested compound which inhibits the multiplication of the bacteia. In the following results, however, the MIC is given as being equal to 1 for the reference compounds and the activity figures given for the tested compounds of formula (XV) are, therefore, relative values. This presentation of the results is more correct and the most reproducible because, for one and the same bacterial strain, different MIC values can be observed if they are measured at different times. This is bound up with the "seasonal" variations in the strains and their nutrient medium.

[2] = test system: Staphylococcus aureus 52149; experiment: as above; conditions: S.AUREUS 52149; reference 6-amino-penicillanic acid = 1
Method: This is a Gram-positive coccus, the intrinsic sensitivity of the receptor of which is equivalent to that of the preceding strain but which produces a beta-lactamase which is typical of the species and which renders it resistant to all the penicillins which are sensitive to hydrolysis.
as §1, §2

Escherichia coli B = experiment: as above; conditions: E.COLI B; reference 6-amino-penicillanic acid = 1
Method: This is a well-known collection strain of Escherichia coli which produces very little beta-lactamase (of type I) and is, therefore, very sensitive to penicillins. As regards the classification of the beta-lactamases, use is here made of that proposed by M. H. RICHMOND and R. B. SYKES (see Advances in Microbial Physiology,9,(1973),pp.43 and 45).
as §1, §2

[3] = test system: Escherichia coli B-Ampi R; experiment: as above; conditions: E.COLI B AMPI-R; reference 6-amino-penicillanic acid = 1
Method: This is a mutant of the preceding strain which we have produced.
as §1, §2

[4] = test system: Gram-positive and Gram-negative bacteria; experiment: Comparative antibacterial activity spectra; conditions: towards both Gram-positive and Gram-negative bacteria
Method: as §2

N[C@@H]1C(=O)N2[C@@H]1SC1(CCOCC1)[C@@H]2C(=O)O (relative stereo) [Compound D, 6-amino-2',3',5',6'-tetrahydro-spiro[penam-2,4'-[4H]-pyran]-3-carboxylic acid]
MIC relative to reference compound (=1) [1]: 0.5
MIC relative to reference compound (=1) [2]: 0.5
MIC relative to reference compound (=1) (Escherichia coli B): 0.3
MIC relative to reference compound (=1) [3]: 0.3
Activity as compared with 6-amino-penicillanic acid (in words) [4]: better activity
